Laboratory results reported in patent publication US20170360791A1, “PHARMACEUTICAL COMPOSITIONS FOR INCREASING THE BIOAVAILABILITY OF POORLY SOLUBLE DRUGS” (ASTEX PHARMACEUTICALS, INC., priority 2014, published 2017).
Where a name gives a salt, the structure may show the parent alone. Read-outs that look alike come from different tables or passages of the source.

What was measured:
[1] = assay type: physicochemical
Protocol: The suspensions were filtered through 0.2 or 0.45 microm filters prior to HPLC analysis. Some filtrates were diluted with MeOH prior to the HPLC analysis.

[2] = MP470.HCl in T/C with or without Soluplus in SIF; assay type: physicochemical; settings: Soluplus (12.3%) added to MP470.HCl in T/C, versus control without Soluplus; SIF 37° C., 1 mg/mL MP470 (total); FIG. 4
Protocol: A sample of the formulation was mixed with SIF solution pre-warmed at 37° C. to make a 1 mg/mL MP470 (total) mix.

S=C(NCc1ccc2c(c1)OCO2)N1CCN(c2ncnc3c2oc2ccccc23)CC1 [MP470.HCl, amuvatinib HCl]
solubility ([1]; Capryol 90, oil or lipid, thermodynamic from solid, solvent Capryol 90, room temperature, >24 hours, read-out: Solubility): 100 µg/mL | solubility ([1]; Cremophor EL, organic solvent or mixture, thermodynamic from solid, solvent Cremophor EL, room temperature, >24 hours, read-out: Solubility): 7000 µg/mL | solubility ([1]; DMF, organic solvent or mixture, thermodynamic from solid, solvent DMF, room temperature, >24 hours, read-out: Solubility): 10000 µg/mL | solubility ([1]; Labrafac CC, oil or lipid, thermodynamic from solid, solvent Labrafac CC, room temperature, >24 hours, read-out: Solubility): 50 µg/mL | solubility ([1]; Labrafil M1944CS, oil or lipid, thermodynamic from solid, solvent Labrafil M1944CS, room temperature, >24 hours, read-out: Solubility): 300 µg/mL | solubility ([1]; Lauroglycol 90, oil or lipid, thermodynamic from solid, solvent Lauroglycol 90, room temperature, >24 hours, read-out: Solubility): 60 µg/mL | solubility ([1]; Maisine 35-1, oil or lipid, thermodynamic from solid, solvent Maisine 35-1, room temperature, >24 hours, read-out: Solubility): 1400 µg/mL | solubility ([1]; Miglyol 812N, oil or lipid, thermodynamic from solid, solvent Miglyol 812N, room temperature, >24 hours, read-out: Solubility): 30 µg/mL | solubility ([1]; Miglyol 829, oil or lipid, thermodynamic from solid, solvent Miglyol 829, room temperature, >24 hours, read-out: Solubility): 100 µg/mL | solubility ([1]; Miglyol 840, oil or lipid, thermodynamic from solid, solvent Miglyol 840, room temperature, >24 hours, read-out: Solubility): 40 µg/mL | solubility ([1]; Peceol, oil or lipid, thermodynamic from solid, solvent Peceol, room temperature, >24 hours, read-out: Solubility): 200 µg/mL | solubility ([1]; Solutol HS 15, aqueous with cosolvent or surfactant or cyclodextrin, thermodynamic from solid, solvent Solutol HS 15, estimated by diluting the mixture in water 1/100 and then assaying the dilution, read-out: Solubility): 6000 µg/mL | solubility ([1]; TPGS, aqueous with cosolvent or surfactant or cyclodextrin, thermodynamic from solid, solvent TPGS, estimated by diluting the mixture in water 1/100 and then assaying the dilution, read-out: Solubility): 7000 µg/mL | solubility ([1]; benzyl acetate, organic solvent or mixture, thermodynamic from solid, solvent Benzyl acetate, room temperature, >24 hours, read-out: Solubility): 400 µg/mL | solubility ([1]; benzyl alcohol, organic solvent or mixture, thermodynamic from solid, solvent Benzyl alcohol, room temperature, >24 hours, read-out: Solubility): 48000 µg/mL | solubility ([1]; canola oil, oil or lipid, thermodynamic from solid, solvent Canola oil, room temperature, >24 hours, read-out: Solubility): 10 µg/mL | solubility ([1]; castor oil, oil or lipid, thermodynamic from solid, solvent Castor oil, room temperature, >24 hours, read-out: Solubility): 200 µg/mL | solubility ([1]; clove oil, oil or lipid, thermodynamic from solid, solvent Clove oil, room temperature, >24 hours, read-out: Solubility): 6700 µg/mL | solubility ([1]; corn oil, oil or lipid, thermodynamic from solid, solvent Corn oil, room temperature, >24 hours, read-out: Solubility): 10 µg/mL | solubility ([1]; dichloromethane, organic solvent or mixture, thermodynamic from solid, solvent Dichloromethane, room temperature, >24 hours, read-out: Solubility): 400 µg/mL | solubility ([1]; ethyl acetate, organic solvent or mixture, thermodynamic from solid, solvent Ethyl acetate, room temperature, >24 hours, read-out: Solubility): 50 µg/mL | solubility ([1]; peanut oil, oil or lipid, thermodynamic from solid, solvent Peanut oil, room temperature, >24 hours, read-out: Solubility): 10 µg/mL | solubility ([1]; sesame oil, oil or lipid, thermodynamic from solid, solvent Sesame oil, room temperature, >24 hours, read-out: Solubility): 30 µg/mL | solubility ([1]; solvent Acetic acid, room temperature, >24 hours, HCl): 3000 µg/mL | solubility ([1]; solvent Acetone, room temperature, >24 hours, HCl): 200 µg/mL | solubility ([1]; solvent DMA, room temperature, >24 hours, HCl): 13000 µg/mL | solubility ([1]; solvent DMSO, room temperature, >24 hours, HCl): 18000 µg/mL | solubility ([1]; solvent Glycerin, room temperature, >24 hours, HCl): 4000 µg/mL | solubility ([1]; solvent Labrasol, room temperature, >24 hours, HCl): 3000 µg/mL | solubility ([1]; solvent Methanol, room temperature, >24 hours, HCl): 3000 µg/mL | solubility ([1]; solvent NMP, room temperature, >24 hours, HCl): 40000 to 80000 µg/mL | solubility ([1]; solvent PEG400, room temperature, >24 hours, HCl): 2000 µg/mL | solubility ([1]; solvent Phosal 50 PG, room temperature, >24 hours, HCl): 15000 µg/mL | solubility ([1]; solvent Propylene glycol, room temperature, >24 hours, HCl): 4000 µg/mL | solubility ([1]; solvent Triacetin, room temperature, >24 hours, HCl): 800 µg/mL | solubility ([1]; solvent Tween 20, room temperature, >24 hours, HCl): 17000 µg/mL | solubility ([1]; solvent Tween 80, room temperature, >24 hours, HCl): 4500 µg/mL | solubility ([1]; tocopherol, oil or lipid, thermodynamic from solid, solvent Tocopherol, room temperature, >24 hours, read-out: Solubility): 800 µg/mL | MP470 solubility enhancement [2]: ~10 fold
